According to US11167012B2, “Peptide inhibition of CCR3-mediated diseases or conditions” (The Board of Trustees of the University of Illinois, priority 2015, dated 2021):
Entries after “also recorded” stand apart in the source; their conditions may differ. Where a SMILES comes first, the peptide text is derived from it. The star is where a group is joined. X1 = NC(=O)CCOCCOCCOCCOCCOCCOCCOCCOCCOCCOCCOCCOCCOCCOCCOCCOCCOCCOCCOCCOCCOCCOCCOCCOCCOCCOCCOCCOCCN*

System: ERK1/2 phosphorylation
Assay: Signal transduction assay, Western blotting of phospho-ERK1/2 in AML14.3D10-CCR3 cells
Format: cell-based, human
Procedure: Phospho-ERK was detected using a specific antibody. The membrane was stripped and reprobed for total ERK1/2 as loading control. Immunoblots were quantified by densitometry using ImageJ. PD: PD184161, MEK inhibitor.
AML14.3D10-CCR3 cells were serum starved for 16 hours. Cells were pretreated with vehicle control, R3-2-1 or PD184161 for 30 minutes at 37° C., and subsequently stimulated with 8 nM CCL5 or CCL11 for 2 minutes. Stimulation was stopped by adding ice cold PBS. Cells were centrifuged and lysed in RIPA buffer containing protease and phosphatase inhibitors. Cell lysates were resolved on a 12% SDS-PAGE gel (10 μg/lane), transferred to PVDF membrane and blocked in 5% milk. Phospho-ERK1/2 was detected using rabbit monoclonal antibody (clone D13.14.4E, Cell Signaling Technology, Danvers, Mass.) and secondary goat anti-rabbit IgG-HRP (Santa Cruz Biotechnology, Dallas, Tex.). As a loading control, the membrane was subsequently stripped and re-probed with an antibody against total ERK1/2 (clone 127F5, Cell Signaling Technology).
Concurrent to ligand binding and activation, CCR3 undergoes ligand-induced desensitization and internalization (Zimmermann, et al. (1999) J. Biol. Chem. 274:12611-12618). As part of the desensitization process, CCR3 is degraded. This is thought to occur via β-arrestin recruitment to phosphorylated CCR3 and subsequent sequestration of the receptor into endosomal compartments, eventually leading to degradation. β-arrestin signaling is central in this process and is characterized by a late activation of signaling pathways such as MAPK/ERK1/2, in contrast to acute activation by G proteins. […] Therefore, the R3-2-1 peptide is a biased antagonist in that it inhibits the […] of CCL11 ligand-induced β-arrestin signaling, whereas the small molecule inhibitors are unbiased antagonists.

SMILES: CC[C@H](C)[C@H](NC(=O)[C@H](Cc1c[nH]c2ccccc12)NC(=O)[C@H](Cc1ccccc1)NC(=O)[C@@H]1CCCN1C(=O)[C@H](CC(C)C)NC(=O)[C@@H](NC(=O)[C@@H](NC(=O)[C@H](CC(C)C)NC(=O)[C@H](Cc1ccccc1)NC(=O)[C@H](CC(C)C)NC(=O)[C@@H](N)CC(C)C)C(C)C)[C@@H](C)O)C(=O)N[C@@H](Cc1c[nH]cn1)C(=O)N[C@@H](Cc1ccc(O)cc1)C(=O)N[C@H](C(=O)N[C@@H](CCCNC(=N)N)C(=O)NCC(=O)N[C@@H](Cc1c[nH]cn1)C(=O)N[C@@H](CC(N)=O)C(=O)N[C@@H](Cc1c[nH]c2ccccc12)C(=O)N[C@H](C(=O)N[C@@H](Cc1ccccc1)C(=O)NCC(=O)N[C@@H](Cc1c[nH]cn1)C(=O)N[C@@H](CC(=O)O)C(=O)N[C@@H](CC(=O)O)C(=O)N[C@@H](CC(=O)O)C(=O)NCCOCCOCCOCCOCCOCCOCCOCCOCCOCCOCCOCCOCCOCCOCCOCCOCCOCCOCCOCCOCCOCCOCCOCCOCCOCCOCCOCCOCCC(N)=O)C(C)C)C(C)C [Peptide R3-2-1] (H-LLFLVTLPFWIHYVRGHNWVFGHDDD-X1; N-terminus assumed)
- acute (2-5 minutes) and late (30 minutes) phase phosphorylation of ERK1/2 (10 μM, CCL11-induced): inhibits only acute phosphorylation of ERK1/2
- inhibition of ERK1/2 phosphorylation induced by RANTES and eotaxin (2 and 10 μM, 8 nM CCL5 or CCL11 for 2 minutes): inhibits activation of the MAPK pathway; also recorded: attenuated
